# Values quoted from earlier work in patent US12258594B2, “Cas proteins with reduced immunogenicity and methods of screening thereof” (THE BROAD INSTITUTE, INC., priority 2018, dated 2025).
# System: dystrophin gene exon 51
# Conditions: across 48 weeks
row,Molecule,average dystrophin positive fibers compared to baseline
1,eteplirsen,47%

# System: target DNA
# Conditions: AsCpf1 mutants
row,Molecule,DNA cleavage activity
1,R1226A: R1226A mutant of AsCpf1,almost no activity
2,K607A: K607A mutant of AsCpf1,almost no activity
3,D908A: D908A mutant of AsCpf1,almost no activity
4,E993A: E993A mutant of AsCpf1,almost no activity
5,R192A: R192A mutant of AsCpf1,reduced activities
6,M604A: M604A mutant of AsCpf1,reduced activities
7,D1263A: D1263A mutant of AsCpf1,significantly reduced activity
8,R951A: R951A mutant of AsCpf1,reduced activities
9,K548A: K548A mutant of AsCpf1,reduced activities
10,G783P: G783P mutant of AsCpf1,reduced activities
11,W382A: W382A mutant of AsCpf1,reduced activity
12,D1235A: D1235A mutant of AsCpf1,reduced activity
13,R176A: R176A mutant of AsCpf1,reduced activities
14,51228A: mutant of Ser1228 of AsCpf1,comparable to that of wild-type AsCpf1

# Same assay, conditions: AsCpf1 mutants, target and non-target strand
row,Molecule,DNA strand cleaved
1,R1226A: R1226A mutant of AsCpf1,"acts as a nickase that cleaves the non-target DNA strand, but not the target strand"

# System: target sites with PAM
# Conditions: AsCpf1 and variants
row,Molecule,PAM of target sites that can be cleaved
1,S542R/K548V/N552R: AsCpf1 variant with the mutations S542R/K548V/N552R,TATV
2,S542R/K607R: AsCpf1 variant with the mutations S542R/K607R,TYCV/CCCC
3,AsCpf1: Acidaminococcus sp. BV3L6 Cpf1,TTTV

# Same assay, conditions: in vitro and in human cells
row,Molecule,activities at the altered PAMs
1,S542R/K548V/N552R: AsCpf1 variant with the mutations S542R/K548V/N552R,enhanced activities
2,S542R/K607R: AsCpf1 variant with the mutations S542R/K607R,enhanced activities

# System: Factor VII
# Conditions: LNP siRNA systems containing the lipid; hepatocytes in vivo
row,Molecule,"gene silencing potencies, series (rank order)"
1,"1,2-dilinoleyloxy-keto-N,N-dimethyl-3-aminopropane [DLinKDMA]",DLinKC2-DMA>DLinKDMA>DLinDMA>>DLinDAP
2,"CCCCC/C=C\C/C=C\CCCCCCCCC1(CCCCCCCC/C=C\C/C=C\CCCCC)OCC(CCN(C)C)O1 (stereo not shown) [DLinKC2-DMA, 1,2-dilinoleyl-4-(2-dimethylaminoethyl)-[1,3]-dioxolane]",DLinKC2-DMA>DLinKDMA>DLinDMA>>DLinDAP
3,"CCCCC/C=C\C/C=C\CCCCCCCC(=O)OCC(CN(C)C)OC(=O)CCCCCCC/C=C\C/C=C\CCCCC (stereo not shown) [DLinDAP, 1,2-dilineoyl-3-dimethylammonium-propane]",DLinKC2-DMA>DLinKDMA>DLinDMA>>DLinDAP
4,"CCCCC/C=C\C/C=C\CCCCCCCCOCC(CN(C)C)OCCCCCCCC/C=C\C/C=C\CCCCC (stereo not shown) [DLinDMA, 1,2-dilinoleyloxy-3-N,N-dimethylaminopropane]",DLinKC2-DMA>DLinKDMA>DLinDMA>>DLinDAP
